Results as given in patent publication US6897230B2, “Bicyclo[3/1/0] hexane containing oxazolidinone antibiotics and derivatives thereof” (Kyorin Pharmaceutical Co., Ltd., priority 2001, dated 2005).
Values after ≈ are worked out from the molar mass of the structure shown. Counter-ions that a name gives are not always drawn.

What was measured:
[1] = tested on: Enterococcus faecium VRQR (vancomycin resistant, quinolone resistant); test: MIC, agar dilution method; assay type: cell-based; conditions: Mueller-Hinton agar with 5% defibrinated horse blood, 5% CO2, 24 hours
Experimental: (§1) The following in vitro results were obtained based on an agar dilution method except for C. pneumoniae. The activity is presented as the minimum inhibitory concentration (MIC).
(§2) Streptococci and enterococci were tested on Mueller-Hinton agar supplemented with 5% defibrinated horse blood, using an approximate inoculum of 1×10^4 cfu/spot an incubation temperature of 35° C. in an atmosphere of 5% CO2 for 24 hours. The MIC was defined as the lowest concentration at which no visible bacterial growth was observed.

[2] = tested on: Streptococcus pneumoniae IID553; test: MIC, agar dilution method; assay type: cell-based; conditions: Mueller-Hinton agar with 5% defibrinated horse blood, 5% CO2, 24 hours
Experimental: as §1, §2

[3] = tested on: Streptococcus pneumoniae PRQR (penicillin resistant, quinolone resistant); test: MIC, agar dilution method; assay type: cell-based; conditions: Mueller-Hinton agar with 5% defibrinated horse blood, 5% CO2, 24 hours
Experimental: as §1, §2

[4] = tested on: Streptococcus pyogenes IID692; test: MIC, agar dilution method; assay type: cell-based; conditions: Mueller-Hinton agar with 5% defibrinated horse blood, 5% CO2, 24 hours
Experimental: as §1, §2

[5] = tested on: Staphylococcus aureus CR (chloramphenicol resistant); test: MIC, agar dilution method; assay type: cell-based; conditions: Mueller-Hinton agar, 35 C, 24 hours
Experimental: as §1
(§3) S. aureus and M. catarrhalis were tested on Mueller-Hinton agar, using an approximate inoculum of 1×10^4 cfu/spot an incubation temperature of 35 C. for 24 hours. The MIC was defined as the lowest concentration at which no visible bacterial growth was observed.

[6] = tested on: Staphylococcus aureus MR (methicillin resistant); test: MIC, agar dilution method; assay type: cell-based; conditions: Mueller-Hinton agar, 35 C, 24 hours
Experimental: as §1, §3

[7] = tested on: Staphylococcus aureus Smith; test: MIC, agar dilution method; assay type: cell-based; conditions: Mueller-Hinton agar, 35 C, 24 hours
Experimental: as §1, §3

[8] = tested on: Chlamydia pneumoniae ATCC VR-1360; test: MIC, inclusion formation in infected HeLa 229 cells; assay type: cell-based; conditions: ATCCVR1360, 72 hours, lowest concentration with no inclusion
Experimental: as §1
C. pneumoniae was tested using minimum essential medium supplemented with 10% heat-inactivated fetal bovine serum, 2 mM L-glutamine, […] cycloheximide and non essential amino acid. HeLa 229 cells were inoculated with 10^4 inclusion-forming units of C. pneumoniae strain per mL. Infected cells were incubated with test compounds in complete medium at 35C in an atmosphere of 5% CO2 for 72 hours. […] The MIC was defined as the lowest concentration at which no inclusion was observed.

[9] = tested on: Moraxella catarrhalis ATCC25238; test: MIC, agar dilution method; assay type: cell-based; conditions: Mueller-Hinton agar, 35 C, 24 hours
Experimental: as §1, §3

Structure (SMILES) | melting point | MIC [1] | MIC [2] | MIC [3] | MIC [4] | MIC [5] | MIC [6] | MIC [7] | MIC [8] | MIC [9]
CC(=O)NC[C@H]1CN(c2ccc(C3=C[C@@H]4[C@@H](N)[C@@H]4C3)c(F)c2)C(=O)O1 (as salt: hydrochloride) [Example 50, N-[5(S)-3-[4-[(1α,5α,6α)-6-Aminobicyclo[3.1.0]hex-2-en-3-yl]-3-fluorophenyl]-2-oxooxazolidin-5-ylmethyl]acetamide Hydrochloride] | 215 to 220 °C | – | – | – | – | – | – | – | – | –
CC(=O)NC[C@H]1CN(c2ccc(N3C[C@@H]4[C@@H](N)[C@@H]4C3)c(F)c2)C(=O)O1 [Example 8, N-[5(S)-3-[4-[(1α,5α,6α)-6-Amino-3-azabicyclo[3.1.0]hexan-3-yl]-3-fluorophenyl]-2-oxooxazolidin-5-ylmethyl]acetamide] | – | 2 µg/mL (≈ 5.74 µM) | 1 µg/mL (≈ 2.87 µM) | 1 µg/mL (≈ 2.87 µM) | 0.5 µg/mL (≈ 1.44 µM) | 4 µg/mL (≈ 11.5 µM) | 1 µg/mL (≈ 2.87 µM) | 0.5 µg/mL (≈ 1.44 µM) | 0.5 µg/mL (≈ 1.44 µM) | –
CC(=O)NC[C@H]1CN(c2ccc(N3C[C@@H]4[C@@H](C#N)[C@@H]4C3)c(F)c2)C(=O)O1 [Example 46, N-[5(S)-3-[4-[(1α,5α,6α)-6-Cyano-3-azabicyclo[3.1.0]hexan-3-yl]-3-fluorophenyl]-2-oxooxazolidin-5-ylmethyl]acetamide] | – | 0.5 µg/mL (≈ 1.4 µM) | 0.5 µg/mL (≈ 1.4 µM) | 0.25 µg/mL (≈ 0.698 µM) | 0.25 µg/mL (≈ 0.698 µM) | 1 µg/mL (≈ 2.79 µM) | 0.25 µg/mL (≈ 0.698 µM) | 0.25 µg/mL (≈ 0.698 µM) | – | 2 µg/mL (≈ 5.58 µM)
CC(=O)NC[C@H]1CN(c2ccc(N3CCOCC3)c(F)c2)C(=O)O1 [Linezolid, reference compound] | – | 2 µg/mL (≈ 5.93 µM) | 2 µg/mL (≈ 5.93 µM) | 1 µg/mL (≈ 2.96 µM) | 1 µg/mL (≈ 2.96 µM) | 16 µg/mL (≈ 47.4 µM) | 1 µg/mL (≈ 2.96 µM) | 1 µg/mL (≈ 2.96 µM) | 8 µg/mL (≈ 23.7 µM) | 4 µg/mL (≈ 11.9 µM)

Continued by falling MIC [1], values first:

melting point | MIC [1] | MIC [2] | MIC [3] | MIC [4] | MIC [5] | MIC [6] | MIC [7] | MIC [8] | MIC [9] | Structure (SMILES)
– | 0.5 µg/mL (≈ 1.38 µM) | 0.5 µg/mL (≈ 1.38 µM) | 0.5 µg/mL (≈ 1.38 µM) | 0.5 µg/mL (≈ 1.38 µM) | 0.5 µg/mL (≈ 1.38 µM) | 0.016 µg/mL (≈ 0.0443 µM) | 0.06 µg/mL (≈ 0.166 µM) | – | 2 µg/mL (≈ 5.53 µM) | CC(=O)NC[C@H]1CN(c2ccc(N3C[C@@H]4[C@@H](C=O)[C@@H]4C3)c(F)c2)C(=O)O1 [Example 22, N-[5(S)-3-[3-Fluoro-4-[(1α,5α,6α)-6-formyl-3-azabicyclo[3.1.0]hexan-3-yl]phenyl]-2-oxooxazolidin-5-ylmethyl]acetamide]
– | 0.5 µg/mL (≈ 1.33 µM) | 0.5 µg/mL (≈ 1.33 µM) | 0.5 µg/mL (≈ 1.33 µM) | 0.5 µg/mL (≈ 1.33 µM) | 0.5 µg/mL (≈ 1.33 µM) | 0.06 µg/mL (≈ 0.159 µM) | 0.06 µg/mL (≈ 0.159 µM) | – | 4 µg/mL (≈ 10.6 µM) | CC(=O)NC[C@H]1CN(c2ccc(N3C[C@@H]4[C@@H](/C=N/O)[C@@H]4C3)c(F)c2)C(=O)O1 [Example 41, (E)-N-[5(S)-3-[3-Fluoro-4-[(1α,5α,6α)-6-[(hydroxyimino)methyl]-3-azabicyclo[3.1.0]hexan-3-yl]phenyl]-2-oxooxazolidin-5-ylmethyl]acetamide]
